# Reference: publication PMC6337391 (Molecules, 2019)
# Key:
# [1] = Lipophilicity as RM values by RP-TLC; type: physicochemical; parameters: key: RM = log[(1/Rf) − 1]; conditions: methanol/water 70/30, SD < 10%
# Description: It is well-documented and discussed in the literature that lipophilicity is a very significant physicochemical property which may critically affect distribution, bioavailability, metabolic activity and elimination, all the useful characteristics for the kinetics of biologically active compounds. Thus, we attempted to determine experimentally the lipophilicity of the synthesized compounds from the RPTLC method as RM values. The method is considered to be a reliable, fast and convenient method for expressing lipophilicity. Moreover, many calculated methods were used in order to predict the logP value.
# Reversed phase TLC (RP-TLC) was performed on silica gel plates impregnated with 5% (v/v) liquid paraffin in light petroleum ether. The mobile phase was a methanol/water mixture (70/30, v/v). The plates were developed in closed chromatography tanks saturated with the mobile phase at 24 °C. Spots were detected under UV light. Five individual measurements of Rf values were recorded and used for the determination of RM using the equation RM = log [(1/Rf) − 1]. (Table 3).
# [2] = Inhibition of linoleic acid lipid peroxidation (AAPH)
# Description: The water soluble 2,2′-azobis(2-amidinopropane) hydrochloride (AAPH) generates in vitro free radicals through spontaneous thermal decomposition. […] Overall, chalcones a, b, and c present anti-lipid peroxidation activity. […] The inhibiting activities for the rest b chalcones ranged from 15–44%. The intermediate ethers are moderate inhibitors. […] This might be correlated with the presence of the double C=C–COCH3 group. […] Both have a long ether chain in their structure.
# In an aqueous solution spectrophotometrically at 234 nm the production of conjugated diene hydro peroxide by oxidation of sodium linoleate was monitored and recorded according to our previous published experimental conditions, using 10 µL of the 16 mM sodium linoleate solution added to the UV cuvette containing 930 μL of 0.05 M phosphate buffer, pH 7.4 pre-thermostated at 37 °C, under air by the addition of 50 μL of 40 mM AAPH solution, which was used as a free radical initiator. Ten microliters (10 μL) of the appropriate solutions of the tested compounds were added in the mixture, whereas same level of DMSO was used as a blank for the measurement of lipid oxidation. The rate of oxidation at 37 °C was monitored by recording the increase in absorption at 234 nm caused by conjugated diene hydro peroxides.
# [3] = system: L929 mouse fibroblasts cells; assay: Cytotoxicity, propidium iodide fluorescence method; type: cell-based; conditions: 24-h incubation
# Protocol: The cytotoxicity of the synthesized derivatives against L929 mouse fibroblasts cells was determined using the propidium iodide (PI) fluorescence method in the presence of different concentrations (1–100 μM) of these compounds. The results are presented in Table 4 in the form of the % cell survival values as PI% for the examined compounds. […] Chalcones c7, c8, c11, and c12 follow.
# L929 mouse fibroblasts cells were cultured in EMEM supplemented with 10% horse serum, 2 mM L-glutamine, 1 mM sodium pyruvate, 0.1 mM nonessential amino acids, 1.5 g/L sodium bicarbonate, and 100 μg/mL penicillin–streptomycin at 37 °C in a humidified atmosphere with 5% CO2. L929 cells were plated into 24-well plates at a density […] and allowed to attach and grow for 24 h. The supernatant in each well then replaced with medium containing various concentrations (1, 10, 20, 50 and 100 μM) of compounds a5–12, c5–12, di, and dii–dvi, which presented the more interesting results in the in vitro experiments. After 24-h incubation, the supernatant was removed and the cells were washed with PBS. The cells were detached with 0.25% trypsin, transferred to FACS tubes, and then centrifuged (1600 rpm for 5 min) and the pellet washed with PBS. After washing, the cells in the pellet were incubated with 5 μL propidium iodide (PI) solution (1 mg/mL) for 1 min. The PI fluorescence (cell death) was determined with flow cytometry, FACS Calibur, Coulter Epics XL-MCL (Beckman, Inc., Mount Holly, NJ, USA). The analysis of flow cytometry data was performed with the WinMDI analysis program (Table 4).
# soybean lipoxygenase = molecular target: T1, soybean lipoxygenase (Glycine max, UniProt P08170); assay: biochemical; type: biochemical; conditions: soybean LOX
# T1 sequence (P08170 1-839): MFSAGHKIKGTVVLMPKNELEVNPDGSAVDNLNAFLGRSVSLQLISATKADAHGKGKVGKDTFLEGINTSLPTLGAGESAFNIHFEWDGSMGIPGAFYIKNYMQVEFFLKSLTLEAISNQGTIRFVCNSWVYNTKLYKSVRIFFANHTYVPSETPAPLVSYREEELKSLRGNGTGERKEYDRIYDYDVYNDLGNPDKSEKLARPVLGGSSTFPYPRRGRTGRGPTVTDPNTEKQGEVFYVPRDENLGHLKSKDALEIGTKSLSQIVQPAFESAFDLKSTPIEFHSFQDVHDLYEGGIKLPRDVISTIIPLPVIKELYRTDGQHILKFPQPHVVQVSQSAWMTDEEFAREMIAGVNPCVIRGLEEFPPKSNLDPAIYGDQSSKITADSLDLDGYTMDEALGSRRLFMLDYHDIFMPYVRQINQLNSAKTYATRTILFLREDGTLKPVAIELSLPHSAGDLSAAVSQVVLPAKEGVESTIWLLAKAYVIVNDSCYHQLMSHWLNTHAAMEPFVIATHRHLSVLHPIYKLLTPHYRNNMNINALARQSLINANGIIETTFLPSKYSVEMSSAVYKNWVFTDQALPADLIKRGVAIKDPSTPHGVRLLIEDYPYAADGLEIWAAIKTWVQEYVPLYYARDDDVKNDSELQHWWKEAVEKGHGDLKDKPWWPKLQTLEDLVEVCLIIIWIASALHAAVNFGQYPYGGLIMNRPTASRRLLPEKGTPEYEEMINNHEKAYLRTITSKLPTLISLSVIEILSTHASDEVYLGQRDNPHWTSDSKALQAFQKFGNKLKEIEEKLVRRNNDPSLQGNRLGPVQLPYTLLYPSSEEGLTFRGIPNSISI
# Description: In our experiments we used soybean lipoxygenase. Designing agents to modulate activities of the variety of so closely homologous enzymes, such as different LOXs, require an intimate knowledge of their 3D structures, as well as information about metabolism of the potential xenobiotics. […] Due to lack of sufficiently-purified human enzymes most of the research has been done on soybean LOX [52, 53]. Although this enzyme is not identical to the mammalian one, it seems that there is a sufficient qualitative correlation between values for enzyme inhibition with the two enzymes.
# In vitro study was evaluated as reported previously. The tested compounds as stock solutions were dissolved in DMSO. Ten microliters (10 μL) were incubated at room temperature with sodium linoleate ([…]) and 0.2 mL of enzyme solution (1/9 × 10^−4 w/v in saline) in buffer pH 9 (tris) at room temperature (final volume 1 mL). […] Several concentrations were used for the determination of IC50 values.
# [4] = ABTS•+ decolorization assay
# Protocol: The decolorization assay is used to evaluate the antioxidant activity. The ABTS^•+ cationic radical is derived from the direct oxidation of ABTS by potassium persulfate. No involvement of an intermediary radical is observed. The addition of electron-donating antioxidants reduce ABTS^•+.
# Stock solutions of the tested compounds in DMSO (10 mM) were diluted. […] aliquots of each sample were added into the ABTS·^+ solution and the absorbance was recorded at room temperature. Trolox was used as a standard.
# [5] = Reducing activity with the stable radical DPPH
# Protocol: The chalcones were studied for the antioxidant activity (reducing activity RA%) by the use of the stable free radical 2,2-diphenyl-1-picrylhydrazyl radical (DPPH) at concentrations 0.05 mM after 20 and 60 min (Table 2). In this procedure, the dominant chemical reaction involved is the reduction of the DPPH radical by single electron transfer from the antioxidant. […] For the sake of comparison, we measured the RA% values for the intermediate double ethers d which were included in the Table 2.
# To a solution of DPPH (final concentration 0.05 mM) in absolute ethanol an equal volume of the compounds solution in DMSO (stock solution 10 mM) dissolved in ethanol was added. Absolute ethanol was used as a control. The concentrations of the solutions of the compounds were 0.05 and 0.1 mM. The absorbance was recorded at 517 nm at room temperature after 20 and 60 min [29] (Table 2).
Structure (SMILES),RM [1],AAPH% @ 100 μM (anti-lipid peroxidation) [2] [%],1 μM Average (% pi) ± σ [3] [%],10 μM Average (% pi) ± σ [3] [%],20 μM Average (% pi) ± σ [3] [%],50 μM Average (% pi) ± σ [3] [%],100 μM Average (% pi) ± σ [3] [%],% LOX Inhb. @ 100 μM (soybean lipoxygenase) [%],ABTS•+ Inhb. % @ 100 μM [4],IC50 (soybean lipoxygenase; read-out: LOX IC50) [µM],RA% 100 μM 20 min [5],RA% 100 μM 60 min [5]
"CC(=O)c1ccc(OCCCCCOc2ccc(C(C)=O)cc2)cc1 [div, 1,1′-((pentane-1,5-diylbis(oxy))bis(4,1-phenylene))diethanone]",0.23,30,4.89 ± 0.51,8.56 ± 3.97,11.86 ± 2.98,17.05 ± 1.46,17.05 ±1.46,17,No,,,
"O=C(/C=C/c1ccc(OCc2ccc(Br)cc2)cc1)c1ccccc1O [b1, (E)-3-(4-((4-bromobenzyl)oxy)phenyl)-1-(2-hydroxyphenyl) prop-2-en-1-one]",−0.91,89,,,,,,89,40%,56,46%,0%
"CC(/C=C/C(=O)c1ccccc1O)=C\c1ccccc1 [b8, (2E,4E)-1-(2-hydroxyphenyl)-4-methyl-5-phenylpenta-2,4-dien-1-one]",−0.79,25,,,,,,25,12%,,17%,3%
"CC(=O)c1ccc(OCCCCCCCCOc2ccc(C(C)=O)cc2)cc1 [dvii, 1,1′-((octane-1,8-diylbis(oxy))bis-(4,1-phenylene))diethanone]",−0.36,27,,,,,,5,No,,,
"CC(Cc1ccc(O)c(O)c1)C(C)Cc1ccc(O)c(O)c1 (stereo not drawn) [NDGA, Nordihydroguaiaretic acid, reference compound]",,,,,,,,,,,81%,83%
"CC(=O)c1ccc(OCCCCOc2ccc(C(C)=O)cc2)cc1 [diii, 1,1′-((butane-1,4-diylbis(oxy))bis(4,1-phenylene))diethanone]",−0.37,29,14.06 ± 1.36,20 ± 3.12,20.76 ± 3.51,32.14 ± 6.99,32.14 ± 6.99,41,No,,,
"Nc1c2c(nc3ccccc13)CCCC2 [Tacrine, reference compound]",,,,,,,,,88%,,,
"CC(=O)c1ccc(OCCCCCCOc2ccc(C(C)=O)cc2)cc1 [dv, 1,1′-((hexane-1,6-diylbis(oxy))bis(4,1-phenylene))diethanone]",−0.53,18,4.47 ± 0.59,6.83 ± 2.46,8.05 ± 3.58,9.69 ± 0.57,9.69 ± 0.57,7,No,,,
"CN(C)c1ccc(/C=C/C=C/C(=O)c2ccc(OCCCCCCCCOc3ccc(C(=O)/C=C/C=C/c4ccc(N(C)C)cc4)cc3)cc2)cc1 [evii, (2E,2′E,4E,4′E)-1,1′-((octane-1,8-diylbis(oxy))bis(4,1-phenylene))bis(5-(4-(dimethylamino)phenyl)penta-2,4-dien-1-one)]",,6,,,,,,12,88%,,No,no
"CN(C)c1ccc(/C=C/C=C/C(=O)c2ccc(OCCCCCCOc3ccc(C(=O)/C=C/C=C/c4ccc(N(C)C)cc4)cc3)cc2)cc1 [ev, (2E,2′E,4E,4′E)-1,1′-((hexane-1,6-diylbis(oxy))bis(4,1-phenylene))bis(5-(4-(dimethylamino)phenyl)penta-2,4-dien-1-one)]",,14,,,,,,7,25%,,No,no
